Calls of active or inactive are those of the source.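 Rule for the calls: active = IC50 at or below 20 µM; inactive = the rest.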
target: Glucose-6-phosphate 1-dehydrogenase (Homo sapiens) (UniProt P11413); experiment: inhibition of human G6PD activity – biochemical, fluorescence, dose response, selectivity assay for P. falciparum G6PD inhibitor project, SAR follow-up (AID 588414); conditions: NADPH-diaphorase-resazurin fluorescence
Sequence (P11413 whole entry, looked up): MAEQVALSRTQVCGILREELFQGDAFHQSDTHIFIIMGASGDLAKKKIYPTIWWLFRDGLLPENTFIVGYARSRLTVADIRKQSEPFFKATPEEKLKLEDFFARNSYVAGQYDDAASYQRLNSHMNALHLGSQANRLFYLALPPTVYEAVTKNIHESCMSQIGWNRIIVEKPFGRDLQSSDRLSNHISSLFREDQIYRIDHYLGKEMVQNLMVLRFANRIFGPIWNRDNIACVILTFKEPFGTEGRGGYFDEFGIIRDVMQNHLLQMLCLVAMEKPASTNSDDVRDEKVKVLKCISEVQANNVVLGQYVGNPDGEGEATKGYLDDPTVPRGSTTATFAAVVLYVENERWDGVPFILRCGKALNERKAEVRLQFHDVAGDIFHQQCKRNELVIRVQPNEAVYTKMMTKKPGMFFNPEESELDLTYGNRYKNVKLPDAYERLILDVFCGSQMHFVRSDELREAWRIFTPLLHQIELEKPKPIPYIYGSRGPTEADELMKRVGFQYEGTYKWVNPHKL

IC50	Structure (SMILES)
> 80 µM (inactive)	Cc1ccc(CN2C(=O)c3ccccc3Sc3ccc(C(=O)NCCN(C)C)cc32)cc1
> 80 µM (inactive)	CCN(CCNC(=O)c1ccc2c(c1)N(Cc1cc(C)ccc1C)C(=O)c1ccccc1S2)c1ccccc1
> 80 µM (inactive)	CCN1CCCC1CNC(=O)c1ccc2c(c1)NC(=O)/C(=C\c1ccccc1Cl)S2 (stereo not drawn)
> 80 µM (inactive)	O=C1Nc2cc(C(=O)NCCN3CCCCCC3)ccc2S/C1=C/c1ccccc1Cl
> 80 µM (inactive)	Cc1cccc(N2CCN(CCNC(=O)c3ccc4c(c3)NC(=O)c3ccccc3S4)CC2)c1C
> 80 µM (inactive)	Cc1cccc(/C=C2/Sc3ccc(C(=O)NCCN4CCCC4)cc3NC2=O)c1
> 80 µM (inactive)	CCN(CC)CCNC(=O)c1ccc2c(c1)NC(=O)/C(=C\c1ccc(OC)cc1)S2
> 80 µM (inactive)	CCCN(CCC)CCNC(=O)c1ccc2c(c1)NC(=O)/C(=C\c1ccc(C)cc1)S2
> 80 µM (inactive)	O=C1Nc2cc(C(=O)NCCN3CCCC3)ccc2S/C1=C/c1ccccc1F
> 80 µM (inactive)	O=C(Nc1nnc(S(=O)(=O)N2CCCCCC2)s1)c1cccc(Cl)c1
> 80 µM (inactive)	CN(CCNC(=O)c1ccc2c(c1)NC(=O)c1ccccc1S2)C1CCCCC1
> 80 µM (inactive)	CCN(CCNC(=O)c1ccc2c(c1)NC(=O)c1ccccc1S2)c1ccccc1
> 80 µM (inactive)	CCN1CCCC1CNC(=O)c1ccc2c(c1)NC(=O)/C(=C\c1ccc(C)cc1)S2 (stereo not drawn)
> 80 µM (inactive)	Cc1cccc(C(=O)Nc2nnc(S(=O)(=O)N3CCC(C)CC3)s2)c1
> 80 µM (inactive)	CCN(CC)CCNC(=O)c1ccc2c(c1)NC(=O)/C(=C/c1ccccc1)S2
> 80 µM (inactive)	CCN1CCCC1CNC(=O)c1ccc2c(c1)N(Cc1cccc(F)c1)C(=O)c1ccccc1S2 (stereo not drawn)
> 80 µM (inactive)	CCN1CCCC1CNC(=O)c1ccc2c(c1)N(Cc1ccc(C(F)(F)F)cc1)C(=O)c1ccccc1S2 (stereo not drawn)
> 80 µM (inactive)	O=C(Nc1nnc(S(=O)(=O)N2CCCCCC2)s1)c1ccco1
> 80 µM (inactive)	CC1Cc2ccccc2N1S(=O)(=O)c1nnc(NC(=O)c2cccc(F)c2)s1 (stereo not drawn)
> 80 µM (inactive)	CCN(CCNC(=O)c1ccc2c(c1)N(CC)C(=O)c1ccccc1S2)c1ccccc1
> 80 µM (inactive)	O=C1Nc2cc(C(=O)NCCN3CCCC3)ccc2S/C1=C/c1ccccc1Cl
> 80 µM (inactive)	Cc1cccc(C(=O)Nc2nnc(S(=O)(=O)N3CCCCCC3)s2)c1
> 80 µM (inactive)	COc1cccc(/C=C2/Sc3ccc(C(=O)NCCN4CCCC4)cc3NC2=O)c1

IC50	Structure (SMILES)
> 80 µM (inactive)	COc1ccc(/C=C2/Sc3ccc(C(=O)NCCN(C)C)cc3NC2=O)cc1
> 80 µM (inactive)	COc1cccc(C(=O)Nc2nnc(S(=O)(=O)N3CCCCCC3)s2)c1
> 80 µM (inactive)	CCCN(CCC)CCNC(=O)c1ccc2c(c1)NC(=O)/C(=C/c1ccccc1)S2
> 80 µM (inactive)	COc1ccccc1C(=O)Nc1nnc(S(=O)(=O)N2CCCCCC2)s1
> 80 µM (inactive)	CCN(CC)CCNC(=O)c1ccc2c(c1)NC(=O)/C(=C\c1ccccc1F)S2
> 80 µM (inactive)	Cc1ccc(C(=O)Nc2nnc(S(=O)(=O)N3CCCCCC3)s2)cc1
> 80 µM (inactive)	CCN1CCCC1CNC(=O)c1ccc2c(c1)NC(=O)/C(=C/c1ccccc1F)S2 (stereo not drawn)
> 80 µM (inactive)	CN(C)CCNC(=O)c1ccc2c(c1)NC(=O)/C(=C\c1cccc(Cl)c1)S2
> 80 µM (inactive)	CCN(CC)CCNC(=O)c1ccc2c(c1)NC(=O)/C(=C\c1ccccc1Cl)S2
> 80 µM (inactive)	O=C(Nc1nnc(S(=O)(=O)N2CCCCCC2)s1)c1ccccc1
> 80 µM (inactive)	O=C(Nc1nnc(S(=O)(=O)N2CCCc3ccccc32)s1)c1cccc(F)c1
> 80 µM (inactive)	CCC(C)N(CCNC(=O)c1ccc2c(c1)NC(=O)c1ccccc1S2)C1CCCCC1 (stereo not drawn)
> 80 µM (inactive)	CCN1CCCC1CNC(=O)c1ccc2c(c1)N(Cc1ccccc1Cl)C(=O)c1ccccc1S2 (stereo not drawn)
> 80 µM (inactive)	O=C(Nc1nnc(S(=O)(=O)N2CCCCCC2)s1)C1CCCCC1
> 80 µM (inactive)	COc1cccc(/C=C2/Sc3ccc(C(=O)NCCN4CCCCCC4)cc3NC2=O)c1
> 80 µM (inactive)	COc1ccc(/C=C2/Sc3ccc(C(=O)NCCN4CCCCCC4)cc3NC2=O)cc1
> 80 µM (inactive)	COc1ccc(/C=C2/Sc3ccc(C(=O)NCCN4CCCC4)cc3NC2=O)cc1
> 80 µM (inactive)	CCN1CCCC1CNC(=O)c1ccc2c(c1)NC(=O)/C(=C\c1ccccc1F)S2 (stereo not drawn)
> 80 µM (inactive)	COc1ccc(C(=O)Nc2nnc(S(=O)(=O)N3CCCCCC3)s2)cc1OC
> 80 µM (inactive)	CC1Cc2ccccc2N1S(=O)(=O)c1nnc(NC(=O)c2cccc(Br)c2)s1 (stereo not drawn)
> 80 µM (inactive)	O=C(Nc1nnc(S(=O)(=O)N2CCCCCC2)s1)c1ccccc1F
> 80 µM (inactive)	O=C(Nc1nnc(S(=O)(=O)N2CCCCC2)s1)c1cccc(F)c1
> 80 µM (inactive)	Cc1ccccc1C(=O)Nc1nnc(S(=O)(=O)N2CCCCCC2)s1

IC50	Structure (SMILES)
> 80 µM (inactive)	CCN(CC)CCNC(=O)c1ccc2c(c1)N(Cc1ccc(C)cc1)C(=O)c1ccccc1S2
> 80 µM (inactive)	Cc1ccc(C(=O)Nc2nnc(S(=O)(=O)N3c4ccccc4CC3C)s2)cc1 (stereo not drawn)
> 80 µM (inactive)	CCN(CC)CCNC(=O)c1ccc2c(c1)NC(=O)/C(=C\c1cccc(C)c1)S2
> 80 µM (inactive)	Cc1cccc(C(=O)Nc2nnc(S(=O)(=O)N3c4ccccc4CC3C)s2)c1 (stereo not drawn)
> 80 µM (inactive)	O=C1Nc2cc(C(=O)NCCN3CCCCCC3)ccc2S/C1=C/c1ccccc1F
> 80 µM (inactive)	CCN1CCCC1CNC(=O)c1ccc2c(c1)NC(=O)c1ccccc1S2 (stereo not drawn)
> 80 µM (inactive)	CCN1CCCC1CNC(=O)c1ccc2c(c1)N(Cc1ccccc1F)C(=O)c1ccccc1S2 (stereo not drawn)
> 80 µM (inactive)	CN(C)CCNC(=O)c1ccc2c(c1)NC(=O)/C(=C\c1ccccc1F)S2
> 80 µM (inactive)	O=C(Nc1nnc(S(=O)(=O)N2CCCCCC2)s1)c1cccc(Br)c1
> 80 µM (inactive)	CCN(CC)CCNC(=O)c1ccc2c(c1)NC(=O)c1ccccc1S2
> 80 µM (inactive)	COc1ccc(C(=O)Nc2nnc(S(=O)(=O)N3CCCCCC3)s2)cc1
> 80 µM (inactive)	CCN(CC)CCNC(=O)c1ccc2c(c1)NC(=O)/C(=C\c1ccc(OC)c(OC)c1)S2
> 80 µM (inactive)	CCN(CC)CCNC(=O)c1ccc2c(c1)N(Cc1ccccc1Cl)C(=O)c1ccccc1S2
> 80 µM (inactive)	Cc1ccccc1C(=O)Nc1nnc(S(=O)(=O)N2CCCc3ccccc32)s1
> 80 µM (inactive)	O=C(Nc1nnc(S(=O)(=O)N2CCOCC2)s1)c1cccc(F)c1
> 80 µM (inactive)	O=C(Nc1nnc(S(=O)(=O)N2CCCCCC2)s1)c1ccc(F)cc1
> 80 µM (inactive)	Cc1cccc(C(=O)Nc2nnc(S(=O)(=O)N3CCOCC3)s2)c1
> 80 µM (inactive)	O=C(Nc1nnc(S(=O)(=O)N2CCCCCC2)s1)c1cccc(F)c1
> 80 µM (inactive)	Cc1ccc(C(=O)Nc2nnc(S(=O)(=O)N3CCCc4ccccc43)s2)cc1
> 80 µM (inactive)	CCOc1ccc(C(=O)Nc2nnc(S(=O)(=O)N3CCCCCC3)s2)cc1
> 80 µM (inactive)	CCN(CC)CCNC(=O)c1ccc2c(c1)N(Cc1cc(C)ccc1C)C(=O)c1ccccc1S2
> 80 µM (inactive)	Cc1cccc(C(=O)Nc2nnc(S(=O)(=O)N3CCCc4ccccc43)s2)c1

— PubChem BioAssay AID588414 (Sanford-Burnham Center for Chemical Genomics, 2011)
